Tested on: 873145-292-R-J1-PDC complex spheroid viability
Experiment: Anticancer human tumor 873145-292-R-J1-PDC patient-derived renal clear cell carcinoma cell line growth inhibition [POLQ]
Conditions: for IC50: curve of first compound; for viability, T/C: stronger effect = lower value
Outline: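 PDC + HUVEC + MSC complex spheroids; POLQ inhibitors ± partner drugs; top conc. at/near clinical Cmax, else 10 microM (SN-38 1 microM), half-log dilutions; 37 degrees C, 5% CO2.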

[1] = second compound 0.0316 µM, first compound 0.0316 µM
[2] = second compound 0.0316 µM, first compound 0.1 µM
[3] = second compound 0.0316 µM, first compound 0.316 µM
[4] = second compound 0.0316 µM, first compound 1 µM
[5] = second compound 0.0316 µM, first compound 3.16 µM
[6] = second compound 0.0316 µM, first compound 10 µM
[7] = second compound 0.1 µM, first compound 0.0316 µM
[8] = second compound 0.1 µM, first compound 0.1 µM
[9] = second compound 0.1 µM, first compound 0.316 µM
[10] = second compound 0.1 µM, first compound 1 µM
[11] = second compound 0.1 µM, first compound 3.16 µM
[12] = second compound 0.1 µM, first compound 10 µM
[13] = second compound 0.316 µM, first compound 0.0316 µM
[14] = second compound 0.316 µM, first compound 0.1 µM
[15] = second compound 0.316 µM, first compound 0.316 µM
[16] = second compound 0.316 µM, first compound 1 µM
[17] = second compound 0.316 µM, first compound 3.16 µM
[18] = second compound 0.316 µM, first compound 10 µM
[19] = second compound 1 µM, first compound 0.0316 µM
[20] = second compound 1 µM, first compound 0.1 µM
[21] = second compound 1 µM, first compound 0.316 µM
[22] = second compound 1 µM, first compound 1 µM
[23] = second compound 1 µM, first compound 3.16 µM
[24] = second compound 1 µM, first compound 10 µM
[25] = second compound 3.16 µM, first compound 0.0316 µM
[26] = second compound 3.16 µM, first compound 0.1 µM
[27] = second compound 3.16 µM, first compound 0.316 µM
[28] = second compound 3.16 µM, first compound 1 µM
[29] = second compound 3.16 µM, first compound 3.16 µM
[30] = second compound 3.16 µM, first compound 10 µM
[31] = second compound 10 µM, first compound 0.0316 µM
[32] = second compound 10 µM, first compound 0.1 µM
[33] = second compound 10 µM, first compound 0.316 µM
[34] = second compound 10 µM, first compound 1 µM
[35] = second compound 10 µM, first compound 3.16 µM
[36] = second compound 10 µM, first compound 10 µM
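Also: spheroids exposed to compounds for 7 days before viability readout.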
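For viability, T/C in this document: luminescence signal used as surrogate for viable cell content; 100% = DMSO vehicle control viability.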

CC1COCCN1c1cc(C2(O)CC3CCC(C2)O3)c2cnn(-c3ccn[nH]3)c2n1 (centres undefined) + Nc1ccc(C#CCN(C(=O)Cc2ncc(C(F)(F)F)cc2C(F)(F)F)c2ccc(F)cc2)nn1
IC50 (second compound 0.0316 µM): 2.4 µM
IC50 (second compound 0.1 µM): 1.09 µM
IC50 (second compound 0.316 µM): > 10 µM
IC50 (second compound 1 µM): 1.68 µM
IC50 (second compound 3.16 µM): > 10 µM
IC50 (second compound 10 µM): > 10 µM
viability, T/C [1]: 101%
viability, T/C [2]: 84%
viability, T/C [3]: 61.3%
viability, T/C [4]: 52.8%
viability, T/C [5]: 50.3%
viability, T/C [6]: 47.6%
viability, T/C [7]: 111%
viability, T/C [8]: 81.9%
viability, T/C [9]: 61.5%
viability, T/C [10]: 48.1%
viability, T/C [11]: 49.8%
viability, T/C [12]: 40.9%
viability, T/C [13]: 94.3%
viability, T/C [14]: 79.4%
viability, T/C [15]: 54.9%
viability, T/C [16]: 50.4%
viability, T/C [17]: 59.4%
viability, T/C [18]: 45.6%
viability, T/C [19]: 89.2%
viability, T/C [20]: 72.2%
viability, T/C [21]: 59.9%
viability, T/C [22]: 50.2%
viability, T/C [23]: 51.2%
viability, T/C [24]: 42.4%
viability, T/C [25]: 89.2%
viability, T/C [26]: 81%
viability, T/C [27]: 67.5%
viability, T/C [28]: 53.2%
viability, T/C [29]: 56.8%
viability, T/C [30]: 46.9%
viability, T/C [31]: 99.3%
viability, T/C [32]: 94.5%
viability, T/C [33]: 66%
viability, T/C [34]: 57.1%
viability, T/C [35]: 55.3%
viability, T/C [36]: 48.2%

O=C(Nc1ccc(O)c(NS(=O)(=O)c2ccc(F)cc2)c1)c1ccc(-c2ccccc2)cc1 + Nc1ccc(C#CCN(C(=O)Cc2ncc(C(F)(F)F)cc2C(F)(F)F)c2ccc(F)cc2)nn1
IC50 (second compound 0.0316 µM): > 10 µM
IC50 (second compound 0.1 µM): > 10 µM
IC50 (second compound 0.316 µM): > 10 µM
IC50 (second compound 1 µM): > 10 µM
IC50 (second compound 3.16 µM): > 10 µM
IC50 (second compound 10 µM): > 10 µM
viability, T/C [1]: 98%
viability, T/C [2]: 112%
viability, T/C [3]: 113%
viability, T/C [4]: 96.3%
viability, T/C [5]: 110%
viability, T/C [6]: 102%
viability, T/C [7]: 113%
viability, T/C [8]: 113%
viability, T/C [9]: 95.9%
viability, T/C [10]: 101%
viability, T/C [11]: 107%
viability, T/C [12]: 98.9%
viability, T/C [13]: 102%
viability, T/C [14]: 113%
viability, T/C [15]: 114%
viability, T/C [16]: 108%
viability, T/C [17]: 113%
viability, T/C [18]: 98.3%
viability, T/C [19]: 112%
viability, T/C [20]: 100%
viability, T/C [21]: 101%
viability, T/C [22]: 98.2%
viability, T/C [23]: 100%
viability, T/C [24]: 105%
viability, T/C [25]: 113%
viability, T/C [26]: 103%
viability, T/C [27]: 109%
viability, T/C [28]: 106%
viability, T/C [29]: 98.7%
viability, T/C [30]: 106%
viability, T/C [31]: 106%
viability, T/C [32]: 112%
viability, T/C [33]: 105%
viability, T/C [34]: 117%
viability, T/C [35]: 112%
viability, T/C [36]: 93.9%

Reference: PubChem BioAssay AID1963834 (Molecular Pharmacology Branch, DTP, NCI, 2024)
